Data taken from patent US7238694B2, “Rifamycin imino derivatives effective against drug-resistant microbes” (Cumbre Pharmaceuticals, Inc., priority 2004, dated 2007).
≈ marks a conversion by molar mass, not a printed value.

Assays:
Type in all cases: cell-based
[1] = test system: Staphylococcus aureus ATCC29213 rpoB^H418Y; experiment: microbe, parasite or virus in culture; conditions: Staphylococcus aureus, ATCC29213; rifR strain; Cation-Adjusted Mueller-Hinton Broth, 37° C.; read-out: MIC
[2] = test system: Haemophilus influenzae ATCC10211; experiment: MIC, microbroth dilution (NCCLS); conditions: rifS strain, BHI Broth with NAD and hematin, 37° C., read-out: MIC
[3] = test system: Staphylococcus aureus MT1222 gyrA^A116E grlB^S80F; experiment: microbe, parasite or virus in culture; conditions: cipR strain, Cation-Adjusted Mueller-Hinton Broth, 37° C., read-out: MIC
[4] = test system: Streptococcus pneumoniae ATCC6303; experiment: MIC, microbroth dilution (NCCLS); conditions: rifS strain, THY Broth with 1 mg/mL catalase, 5% CO2, 37° C., read-out: MIC
[5] = test system: Streptococcus pyogenes ATCC19615; experiment: MIC, microbroth dilution (NCCLS); conditions: rifS strain, THY Broth, 37° C., read-out: MIC
[6] = test system: Staphylococcus epidermidis ATCC12228; experiment: MIC, microbroth dilution (NCCLS); conditions: rifS strain, Cation-Adjusted Mueller-Hinton Broth, 37° C., read-out: MIC
[7] = test system: Staphylococcus aureus ATCC29213; experiment: MIC, microbroth dilution (NCCLS); conditions: rifS strain, Cation-Adjusted Mueller-Hinton Broth, 37° C., read-out: MIC

COc1c(N2CCN(/N=C/C3=C4NC(=O)/C(C)=C\C=C\[C@H](C)[C@H](O)[C@@H](C)[C@@H](O)[C@@H](C)[C@H](OC(C)=O)[C@H](C)[C@@H](OC)/C=C/O[C@@]5(C)Oc6c(C)c(O)c(c(c6C5=O)C3=O)C4=O)C(C)C2)c(F)cc2c(=O)c(C(=O)O)cn(C3CC3)c12 (mixture of isomers) [Example 12, (R/S)-3-[4-(3-Carboxy-1-cyclopropyl-6-fluoro-8-methoxy-4-oxo-1,4-dihydroquinolin-7-yl)-2-methylpiperazin-1-yl-aminomethylenyl]rifamycin S]
MIC [1]: 0.06 to 16 µg/mL (≈ 0.0547 to 14.6 µM) | MIC [2]: 0.125 to 4 µg/mL (≈ 0.114 to 3.65 µM) | MIC [3]: 0.008 to 0.125 µg/mL (≈ 0.0073 to 0.114 µM) | MIC [4]: 0.008 to 0.06 µg/mL (≈ 0.0073 to 0.0547 µM) | MIC [5]: 0.008 to 0.03 µg/mL (≈ 0.0073 to 0.0274 µM) | MIC [6]: 0.008 to 0.1 µg/mL (≈ 0.0073 to 0.0912 µM) | MIC [7]: 0.008 to 1 µg/mL (≈ 0.0073 to 0.912 µM)

CO[C@H]1/C=C/O[C@@]2(C)Oc3c(C)c(O)c4c(O)c(c(/C=N/N(C)C5CCN(c6cc7c(cc6F)c(=O)c(C(=O)O)cn7C6CC6)C5)c(O)c4c3C2=O)NC(=O)/C(C)=C\C=C\[C@H](C)[C@H](O)[C@@H](C)[C@@H](O)[C@@H](C)[C@H](OC(C)=O)[C@@H]1C (mixture of isomers) [Example 15, (R/S)-3-[1-(3-Carboxy-1-cyclopropyl-6-fluoro-4-oxo-1,4-dihydroquinolin-7-yl)-pyrrolidin-3-yl-N′-methylhydrazinomethylenyl]rifamycin SV]
MIC [1]: 0.06 to 16 µg/mL (≈ 0.0562 to 15 µM) | MIC [2]: 0.125 to 4 µg/mL (≈ 0.117 to 3.74 µM) | MIC [3]: 0.008 to 0.125 µg/mL (≈ 0.00749 to 0.117 µM) | MIC [4]: 0.008 to 0.06 µg/mL (≈ 0.00749 to 0.0562 µM) | MIC [5]: 0.008 to 0.03 µg/mL (≈ 0.00749 to 0.0281 µM) | MIC [6]: 0.008 to 0.1 µg/mL (≈ 0.00749 to 0.0936 µM) | MIC [7]: 0.008 to 1 µg/mL (≈ 0.00749 to 0.936 µM)

COc1c(N2CCC(C3(N(C)C4CCN(/N=C/c5c6c(O)c7c(O)c(C)c8c(c7c5O)C(=O)[C@@](C)(O/C=C/[C@H](OC)[C@@H](C)[C@@H](OC(C)=O)[C@H](C)[C@H](O)[C@H](C)[C@@H](O)[C@@H](C)/C=C/C=C(/C)C(=O)N6)O8)CC4)CC3)C2)c(F)cc2c(=O)c(C(=O)O)cn(C3CC3)c12 (mixture of isomers) [Example 16]
MIC [1]: 0.06 to 16 µg/mL (≈ 0.0491 to 13.1 µM) | MIC [2]: 0.125 to 4 µg/mL (≈ 0.102 to 3.27 µM) | MIC [3]: 0.008 to 0.125 µg/mL (≈ 0.00655 to 0.102 µM) | MIC [4]: 0.008 to 0.06 µg/mL (≈ 0.00655 to 0.0491 µM) | MIC [5]: 0.008 to 0.03 µg/mL (≈ 0.00655 to 0.0246 µM) | MIC [6]: 0.008 to 0.1 µg/mL (≈ 0.00655 to 0.0819 µM) | MIC [7]: 0.008 to 1 µg/mL (≈ 0.00655 to 0.819 µM)

CO[C@H]1/C=C/O[C@@]2(C)Oc3c(C)c(O)c4c(O)c(c(/C=N/N5CCC(N(C)C6(C7CCN(c8c(F)cc9c(=O)c(C(=O)O)cn(C%10CC%10)c9c8Cl)C7)CC6)CC5)c(O)c4c3C2=O)NC(=O)/C(C)=C\C=C\[C@H](C)[C@H](O)[C@@H](C)[C@@H](O)[C@@H](C)[C@H](OC(C)=O)[C@@H]1C (mixture of isomers) [Example 17, (R/S)-3-{[4-({1-[1-(3-Carboxy-8-chloro-1-cyclopropyl-6-fluoro-4-oxo-1,4-dihydro-quinolin-7-yl)-pyrrolidin-3-yl]-cyclopropyl}-methyl-amino)-piperidin-1-ylimino]-methyl}-rifamycin SV]
MIC [1]: 0.06 to 16 µg/mL (≈ 0.0489 to 13.1 µM) | MIC [2]: 0.125 to 4 µg/mL (≈ 0.102 to 3.26 µM) | MIC [3]: 0.008 to 0.125 µg/mL (≈ 0.00653 to 0.102 µM) | MIC [4]: 0.008 to 0.06 µg/mL (≈ 0.00653 to 0.0489 µM) | MIC [5]: 0.008 to 0.03 µg/mL (≈ 0.00653 to 0.0245 µM) | MIC [6]: 0.008 to 0.1 µg/mL (≈ 0.00653 to 0.0816 µM) | MIC [7]: 0.008 to 1 µg/mL (≈ 0.00653 to 0.816 µM)

COc1c(N2CCC(N/N=C/c3c4c(O)c5c(O)c(C)c6c(c5c3O)C(=O)[C@@](C)(O/C=C/[C@H](OC)[C@@H](C)[C@@H](OC(C)=O)[C@H](C)[C@H](O)[C@H](C)[C@@H](O)[C@@H](C)/C=C/C=C(/C)C(=O)N4)O6)C2)c(F)cc2c(=O)c(C(=O)O)cn(C3CC3)c12 (mixture of isomers) [Example 21, (R/S)-3-[1-(3-Carboxy-1-cyclopropyl-6-fluoro-8-methoxy-4-oxo-1,4-dihydroquinolin-7-yl)-pyrrolidinyl-3-hydrazino-methylenyl]-rifamycin SV]
MIC [1]: 0.06 to 16 µg/mL (≈ 0.0553 to 14.8 µM) | MIC [2]: 0.125 to 4 µg/mL (≈ 0.115 to 3.69 µM) | MIC [3]: 0.008 to 0.125 µg/mL (≈ 0.00738 to 0.115 µM) | MIC [4]: 0.008 to 0.06 µg/mL (≈ 0.00738 to 0.0553 µM) | MIC [5]: 0.008 to 0.03 µg/mL (≈ 0.00738 to 0.0277 µM) | MIC [6]: 0.008 to 0.1 µg/mL (≈ 0.00738 to 0.0922 µM) | MIC [7]: 0.008 to 1 µg/mL (≈ 0.00738 to 0.922 µM)

COc1c(N2CCC(N(C)/N=C/c3c4c(O)c5c(O)c(C)c6c(c5c3O)C(=O)[C@@](C)(O/C=C/[C@H](OC)[C@@H](C)[C@@H](OC(C)=O)[C@H](C)[C@H](O)[C@H](C)[C@@H](O)[C@@H](C)/C=C/C=C(/C)C(=O)N4)O6)C2)c(F)cc2c(=O)c(C(=O)O)cn(C3CC3)c12 (mixture of isomers) [Example 22, (R/S)-3-[1-(3-Carboxy-1-cyclopropyl-6-fluoro-8-methoxy-4-oxo-1,4-dihydroquinolin-7-yl)-pyrrolidinyl-3-methylhydrazino-methylenyl]-rifamycin SV]
MIC [1]: 0.06 to 16 µg/mL (≈ 0.0546 to 14.6 µM) | MIC [2]: 0.125 to 4 µg/mL (≈ 0.114 to 3.64 µM) | MIC [3]: 0.008 to 0.125 µg/mL (≈ 0.00728 to 0.114 µM) | MIC [4]: 0.008 to 0.06 µg/mL (≈ 0.00728 to 0.0546 µM) | MIC [5]: 0.008 to 0.03 µg/mL (≈ 0.00728 to 0.0273 µM) | MIC [6]: 0.008 to 0.1 µg/mL (≈ 0.00728 to 0.0911 µM) | MIC [7]: 0.008 to 1 µg/mL (≈ 0.00728 to 0.911 µM)

COc1c(N2CCN(/N=C/c3c4c(O)c5c(O)c(C)c6c(c5c3O)C(=O)[C@@](C)(O/C=C/[C@H](OC)[C@@H](C)[C@@H](OC(C)=O)[C@H](C)[C@H](O)[C@H](C)[C@@H](O)[C@@H](C)/C=C/C=C(/C)C(=O)N4)O6)C(C(=O)O)C2)c(F)cc2c(=O)c(C(=O)O)cn(C3CC3)c12 (mixture of isomers) [Example 23, (R/S)-3-[4-(3-Carboxy-1-cyclopropyl-6-fluoro-8-methoxy-4-oxo-1,4-dihydroquinolin-7-yl)-3-carboxy-piperazin-1-yl-aminomethylenyl]-rifamycin SV]
MIC [1]: 0.06 to 16 µg/mL (≈ 0.0532 to 14.2 µM) | MIC [2]: 0.125 to 4 µg/mL (≈ 0.111 to 3.55 µM) | MIC [3]: 0.008 to 0.125 µg/mL (≈ 0.00709 to 0.111 µM) | MIC [4]: 0.008 to 0.06 µg/mL (≈ 0.00709 to 0.0532 µM) | MIC [5]: 0.008 to 0.03 µg/mL (≈ 0.00709 to 0.0266 µM) | MIC [6]: 0.008 to 0.1 µg/mL (≈ 0.00709 to 0.0886 µM) | MIC [7]: 0.008 to 1 µg/mL (≈ 0.00709 to 0.886 µM)
